Test results published in patent US10821152B2, “Methods, agents and compositions for treatment of inflammatory conditions” (Betanien Hospital, priority 2014, dated 2020).
Several values for one entry are separate records, joined by “and”; a condition that tells them apart may be missing. Identical values can stand only once. Non-standard residues stand in square brackets, D forms with d. Residues, ends and D or L forms follow the SMILES beside them. *: point of attachment. dPhe(4-NHCONH2) = NC(=O)Nc1ccc(C[C@@H](N)C(=O)O)cc1; Dihydroorotyl(S) = O=C1C[C@@H](C(=O)*)NC(=O)N1; dPhe(4-Cl) = N[C@H](Cc1ccc(Cl)cc1)C(=O)O; Phe(4-NH2) = Nc1ccc(C[C@H](N)C(=O)O)cc1; d2Nal = N[C@H](Cc1ccc2ccccc2c1)C(=O)O; Lys(iPr) = CC(C)NCCCC[C@H](N)C(=O)O; d3Pal = N[C@H](Cc1cccnc1)C(=O)O

Legend:
Type in all cases: in vivo, human
[1] = system: patient with multiple sclerosis; test: Treatment of progressive multiple sclerosis with Degarelix, with concomitant Famprydine; settings: MS patient
Method: • person, diagnosed with multiple sclerosis (MS). Their MS was of the progressive type; characterized by a steady deterioration in function. • Fulfilled the 2010 McDonald Criteria for the diagnosis of MS 1. Experimental Treatment • So far results of clinical trials for progressive MS have generally been disappointing. Currently, there is no FDA approved treatment for progressive MS disease. • December 2014 received first dose of Degarelix 240 mg sc. • Received Degarelix 80 mg s.c every two weeks thereafter. Difficulties in Assessing Response in Progressive MS • Almost all trials in progressive MS show a worsening in function over time. The primary endpoint of these trials is usually to be able to show less worsening in the active treatment group compared to the placebo/other treatment group. Worsening is often defined as an increase in the Expanded Disability Status Scale (EDSS). EDSS is severely restrictive as an outcome measure for trials in progressive sclerosis.^2 Trials have not shown improvements in the EDSS or function in MS patients.^2 Optimal outcome measures in progressive MS are open to debate. • Effective imaging outcomes in clinical trials have allowed for the development of treatments for the relapsing-remitting type of MS. […] One of the most important factors in choosing outcome measures for these patients is the meaningfulness to patients. Assessment of Response at 6 Weeks
This was particularly evident in their ability to raise their feet onto a step, physiotherapy exercises, and dressing. In the past year, they previously had always required their spouse's help to climb a step at home, or to carry out certain lower limb exercises with their physiotherapist. By 4 weeks of GnRH antagonist treatment, they no longer required their spouse's help/physiotherapist's help to perform these activities. They climbed onto a step unaided at […] checkup. The improvement started at around 4 weeks after the initiation of therapy, and continued to improve further by 6 weeks. Expanded Disability Status Scale (EDSS): • This patient's EDSS has remained stable at 6.5, as expected over such a short time period of 6 weeks. A score of 6.5 is equivalent to only being able to walk with the aid of a walker, as in their case. This was evident at baseline and 6 weeks. Multiple Sclerosis Impact Scale 29 (MSIS-29): • Patient-reported outcomes are of increasing importance in trials of progressive multiple sclerosis.^2The most frequently used global patient-reported outcome in multiple sclerosis is the MSIS-29.^3 This has been correlated with clinical and imaging metrics specifically in progressive forms of the disease.^4 According to a recent review,^2 patient reported outcomes in trials of progressive multiple sclerosis can be used to validate MRI or clinical metrics, and increased use of patient-reported outcomes in trials of progressive multiple sclerosis will expected to help satisfy regulators' requirements that treatments show relevant benefit for patients. • At baseline, they scored 121 on the MSIS-29. By 6 weeks, their score was reduced to 110. A clinically significant minimal difference is a score change of 8. Therefore this reduction of 11 in their score is considered clinically significant.^5 Multiple Sclerosis Walking Scale-12 (MSWS-12) • The MSWS-12^6 was designed as a disease-specific patient-based instrument for use in clinical trials and clinical practice, to capture the complex impact of MS on walking ability. […] One of the most important attributes of the MSWS-12 in comparison to other assessments of walking in MS patients, is its responsiveness to change. […] By 6 weeks, their score was reduced to 53. This is a 12% improvement. A minimal clinically significant difference has not yet been established. […]

[2] = system: patient with lithium induced psoriasis; test: Treatment of psoriasis (PASI, serum uric acid, testosterone)
Method: The PASI score is a standardized score for assessing disease activity in psoriasis.
He therefore received testosterone supplementation in the form of Testogel containing 50 mg of testosterone, first daily; thereafter every 3 days to maintain testosterone levels within the normal range.
There are very few trials of lithium induced psoriasis. One trial examined 15 patients with psoriasis who were taking lithium.

[3] = system: patients with rheumatoid arthritis; test: Long term Degarelix treatment of rheumatoid arthritis patients: clinical variables; parameters: LH: unit not given beside the values
Text: [table] [table] […] Two examples of patients with continued RA improvement over several weeks despite stably low levels of LH

Work on `CC(=O)N[C@H](Cc1ccc2ccccc2c1)C(=O)N[C@H](Cc1ccc(Cl)cc1)C(=O)N[C@H](Cc1cccnc1)C(=O)N[C@@H](CO)C(=O)N[C@@H](Cc1ccc(NC(=O)[C@@H]2CC(=O)NC(=O)N2)cc1)C(=O)N[C@H](Cc1ccc(NC(N)=O)cc1)C(=O)N[C@@H](CC(C)C)C(=O)N[C@@H](CCCCNC(C)C)C(=O)N1CCC[C@H]1C(=O)N[C@H](C)C(N)=O` [Degarelix] (Ac-[d2Nal][dPhe(4-Cl)][d3Pal]S[Phe(4-NH2)](Dihydroorotyl(S))[dPhe(4-NHCONH2)]L[Lys(iPr)]P[dA]-NH2) yielded a timed walk ([1]; 29 Apr. 2015, after discontinuing Famprydine on 5 Apr. 2015) of 14.0 s, an MFIS-5 ([1]; baseline) of 20 and an MSIS-29 ([1]; baseline) of 121. The MSWS-12 ([1]; baseline) was 60, the “Expanded Disability Status Scale (EDSS)” value ([1]; baseline and 6 weeks) was 6.5 and the “Timed 25 Foot Walk (T25FW)” value ([1]; baseline, stable Famprydine) was 16.7 s. The timed walk ([1]; by 2 months, with Famprydine) was 14.0 s, the timed walk ([1]; by 4 months, with Famprydine) was 11.9 s and the timed walk ([1]; by 5 months (30 Mar. 2015), with Famprydine) was 11.8 s. It also gave an MFIS-5 ([1]; by 6 weeks) of 12, an MFIS-5 reduction ([1]; by 6 weeks) of 40% and an MSIS-29 ([1]; by 6 weeks) of 110. For the same compound, the MSWS-12 ([1]; by 6 weeks) was 53, the MSWS-12 improvement ([1]; by 6 weeks) was 12% and the MSIS-29 score reduction ([1]; by 6 weeks, clinically significant minimal difference 8) was 11. For the same compound, the “General function (patient reported)” value ([1]; from around 4 weeks to 6 weeks) was “a general improvement in their function”, the “testosterone levels (normal 8-35 nmol/L)” value ([2]; after the first week) was < 1 nmol/L and the improvement in psoriasis ([2]; at 6 months) was “stable”. For the same compound, the “Psoriasis Area Severity Index (PASI) score” value ([2]; baseline) was 53.6, the “serum uric acid (230-480 umol/L)” value ([2]; baseline) was 485 µmol/L and the “testosterone levels (normal 8-35 nmol/L)” value ([2]; before therapy) was 12 nmol/L. The PASI reduction ([2]; by 8 weeks) was 23%, the “serum uric acid (230-480 umol/L)” value ([2]; by 8 weeks) was 432 µmol/L and the “testosterone levels (normal 8-35 nmol/L)” value ([2]; week 8, under testosterone substitution (Testogel)) was 9 nmol/L. The ACR % response ([3]; RA Patient 3, 4 wks) was 30%, the ESR ([3]; RA Patient 3, 4 wks) was 41 and the LH ([3]; RA Patient 3, 4 wks) was <0.3. The ACR % response ([3]; RA Patient 3, 8 wks) was 40%, the ESR ([3]; RA Patient 3, 8 wks) was 36 and the LH ([3]; RA Patient 3, 8 wks) was <0.3. For the same compound, the ACR % response ([3]; RA Patient 3, 12 wks) was 50%, the ESR ([3]; RA Patient 3, 12 wks) was 20 and the LH ([3]; RA Patient 3, 12 wks) was <0.3. For the same compound, the ESR ([3]; RA Patient 3, baseline) was 46, the LH ([3]; RA Patient 3, baseline) was 2 and the ACR % response ([3]; RA Patient 4, 3½ wks) was 20%. The ESR ([3]; RA Patient 4, 3½ wks) was 68, the LH ([3]; RA Patient 4, 3½ wks) was <0.3 and the ACR % response ([3]; RA Patient 4, 9 wks) was 50%. The ESR ([3]; RA Patient 4, 9 wks) was 36, the LH ([3]; RA Patient 4, 9 wks) was <0.3 and the ESR ([3]; RA Patient 4, baseline) was 78. For the same compound, the LH ([3]; RA Patient 4, baseline) was 8, the “power Doppler (inflammatory activity) on ultrasound, shoulder and right MCP 4” value ([3]; RA Patient 5, after treatment (FIG. 2B, 2D, 2F)) was “no power Doppler” and the “effusion over the right wrist on ultrasound” value ([3]; RA Patient 6, by 3.5 weeks (FIG. 4)) was “much smaller”. The “Physician assessment (0-100)” value ([3]; baseline, c1-c6=RA Patients 1-6) was 85 and 90 and 80 and 70.
